Data as given in patent US7196110B2, “N-substituted tricyclic 3-aminopyrazoles as inhibitors for the treatment of cell proliferative disorders” (Janssen Phamaceutica N.V., priority 2002, dated 2007).
Where two headings read alike, the source gives them in different places.

How the values were obtained:
[1] = target: T1, PDGF-receptor beta enzyme comprising the tyrosine kinase domain (Homo sapiens, UniProt P09619); assay: Inhibition of PDGF-receptor kinase activity (cell-free, PLC1 peptide, 33P Flashplate); type: biochemical; conditions: for inhibition at 10 µM: compound at 10 uM, read-out: Percent Inhibition @ 10 uM
T1 construct: from amino acid 545 to 1106 of GenBank Access NO: AAA36427
T1 sequence (P09619 545-1106): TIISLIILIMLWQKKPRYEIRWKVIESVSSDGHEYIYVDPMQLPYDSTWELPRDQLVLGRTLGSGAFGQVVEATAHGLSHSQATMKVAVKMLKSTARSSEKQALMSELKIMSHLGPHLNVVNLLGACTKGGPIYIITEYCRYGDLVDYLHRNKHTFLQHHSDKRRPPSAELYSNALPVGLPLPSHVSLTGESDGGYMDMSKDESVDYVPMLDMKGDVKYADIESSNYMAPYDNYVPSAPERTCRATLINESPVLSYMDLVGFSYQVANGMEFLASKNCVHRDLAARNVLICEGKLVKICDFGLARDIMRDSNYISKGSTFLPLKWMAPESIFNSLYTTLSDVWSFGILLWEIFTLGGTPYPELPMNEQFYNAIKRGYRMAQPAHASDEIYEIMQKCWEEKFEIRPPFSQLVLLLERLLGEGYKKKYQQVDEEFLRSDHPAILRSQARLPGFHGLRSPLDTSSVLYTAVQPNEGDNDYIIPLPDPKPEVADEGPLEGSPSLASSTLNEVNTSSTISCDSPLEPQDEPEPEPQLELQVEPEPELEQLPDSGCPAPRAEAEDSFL
In short: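 Recombinant kinase domain (aa 545–1106) phosphorylated a biotinylated PLC1 peptide with 5 μM ATP plus 33P-γ-ATP, in Tris pH 8, MgCl2, Na3VO4 and 1 mM DTT, for 60 min at 30 °C. Retained 33P was counted after washing. IC50 is the concentration halving activity versus no-inhibitor reactions.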

T47D (breast) = assay: Anti-cell proliferation in tumor cells (14C-thymidine incorporation), T47D; type: cell-based; conditions: Homo sapiens, read-out: IC50 on cell proliferation, T47D
Experimental: (§1) The effect of compounds of the invention on cell proliferation in various tumor cells was tested based on incorporation of ^14C-thymidine into DNA of cells.
(§2) Similar to those described above in 3a, except that different cells, cell growth medium, and growth supplements were used. Human tumor cell lines derived from various human tissue origins (LoVo from colon, H460 from lung, T47D from breast, PC3 from prostate, A375 from melanoma, AsPC1 from pancreas) were obtained from the American Type Culture Collection (ATCC) and cultured under specified conditions required for each cell type, as provided by ATCC. Complete medium was obtained from Cellgro: Iscove's medium with 10% Fetal Bovine Serium (FBS) (Mediatech, Inc., Herndon, Va. 20171, Cat. No. 10-016-CV).
(§3) Tumor cells were seeded at approx. 3000–8000 cells per well in a volume of 100 μl of complete medium. Cells were grown for 24 hours in complete medium, and 1 μl of test compound was serially diluted in 100% DMSO and added to each well. For maximum growth control wells, only 1 μl of 100% DMSO was added. After 24 hours incubation, 20 μl of ^14C-thymidine master mix was added to each well and the ^14C-thymidine master mix was pepared according to the following regimen:
(§4) Cells were incubated for an additional 24 hours at 37° C. in medium containing test compound and ^14C-thymidine. Then, the reaction mixture was discarded and the plate was washed 2 times each with 200 μl PBS. Subsequently, each well on the plate was filled with 200 μl of PBS. The top of the plate was sealed with transparent plate sealer and white plate backing sealers were applied to the bottom of plates. The retained ^14C inside each well was measured using a Packard TopCount.
(§5) In order to test the potency of inhibition of the present compound, IC50 of an individual compound on the inhibition of tumor cell line proliferation was measured using the above procedure. As used herein, said IC50 refers to the concentration of the test compound at which the amount of tumor cell proliferation is reduced by one-half as compared to the maximum growth control wells without the compound.

A375 (melanoma) = assay: Anti-cell proliferation in tumor cells (14C-thymidine incorporation), A375; type: cell-based; conditions: Homo sapiens, A-375; read-out: IC50 on cell proliferation, A375
Experimental: as §1, §2, §3, §4, §5

LoVo (colon) = assay: Anti-cell proliferation in tumor cells (14C-thymidine incorporation), LoVo; type: cell-based; conditions: Homo sapiens, read-out: IC50 on cell proliferation, LoVo
Experimental: as §1, §2, §3, §4, §5

c-Abl kinase = c-Abl kinase (Abelson murine leukemia virus, UniProt P00521); assay: Inhibition of c-Abl kinase activity (cell-free, Abl peptide substrate, 33P Flashplate); type: biochemical; conditions: IC50 for the c-Abl kinase activity
Sequence of c-Abl kinase (P00521 115-385): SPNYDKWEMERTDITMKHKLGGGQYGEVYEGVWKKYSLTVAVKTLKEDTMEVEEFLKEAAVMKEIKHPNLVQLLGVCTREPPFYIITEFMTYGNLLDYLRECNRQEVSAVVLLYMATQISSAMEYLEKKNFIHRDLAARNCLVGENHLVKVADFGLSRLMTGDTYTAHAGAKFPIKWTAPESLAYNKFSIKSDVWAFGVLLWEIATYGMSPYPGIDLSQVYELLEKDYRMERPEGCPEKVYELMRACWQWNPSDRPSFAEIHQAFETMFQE

AsPC1 (pancreas) = assay: Anti-cell proliferation in tumor cells (14C-thymidine incorporation), AsPC1; type: cell-based; conditions: Homo sapiens, ASPC1; read-out: IC50 on cell proliferation, AsPC1
Experimental: as §1, §2, §3, §4, §5

PC3 (prostate) = assay: Anti-cell proliferation in tumor cells (14C-thymidine incorporation), PC3; type: cell-based; conditions: Homo sapiens, PC-3; read-out: IC50 on cell proliferation, PC3
Experimental: as §1, §2, §3, §4, §5

H460 (lung) = assay: Anti-cell proliferation in tumor cells (14C-thymidine incorporation), H460; type: cell-based; conditions: Homo sapiens, NCI-H460; read-out: IC50 on cell proliferation, H460
Experimental: as §1, §2, §3, §4, §5

[2] = Rat pharmacokinetics study of pro-drugs, conversion to parent monitored by HPLC/MS/MS; type: in vivo; conditions: po, rat plasma, 10 mg/kg orally, read-out: Fast PK (0.5 h) conc. Prodrug
Experimental: Furthermore, pro-drugs have been administered orally to rats (10 mg/kg) in pharmacokinetics studies, and the conversion of pro-drugs to the parent compound was montitored by HPLC/MS/MS analyses. Parent compound or the glucuronide conjugates of the parent compound was detected in the rat plasma from the pharmacokinetics studies (Table G).

[3] = PDGF-R kinase activity, read-out: IC50

Row | Structure (SMILES) | inhibition at 10 µM ([1]; PDGF-R kinase activity) [%] | IC50 [1, 3] [µM] | IC50 (c-Abl kinase) [nM] | further results
1 | COc1cc2c(cc1OC)-c1n[nH]c(Nc3cccc(Cl)c3)c1C2 [Compound 4, (3-Chloro-phenyl)-(6,7-dimethoxy-2,4-dihydro-indeno[1,2-c]pyrazol-3-yl)-amine] | 90 |  |  | IC50 (T47D (breast)): 30 nM
2 | COc1cc2c(cc1OC)-c1c(c(Nc3cccc(Br)c3)nn1C)C2 [Compound 91, (3-Bromo-phenyl)-(6,7-dimethoxy-1-methyl-1,4-dihydro-indeno[1,2-c]pyrazol-3-yl)-amine] | 76 | 2.97 |  | IC50 (A375 (melanoma)): 4 nM; IC50 (LoVo (colon)): 71 nM
3 | CCOc1cccc(Nc2[nH]nc3c2Cc2cc(OCC)c(OCCCO)cc2-3)c1 [Compound 388, 3-[6-Ethoxy-3-(3-ethoxy-phenylamino)-2,4-dihydro-indeno[1,2-c]pyrazol-7-yloxy]-propan-1-ol] | 96 | 0.0367 | 46 | IC50 (A375 (melanoma)): 2 nM; IC50 (AsPC1 (pancreas)): 155 nM; IC50 (PC3 (prostate)): 4 nM; IC50 (LoVo (colon)): 18 nM; IC50 (H460 (lung)): 6 nM; IC50 (T47D (breast)): 3 nM
4 | Clc1cccc(Cl)c1CNc1[nH]nc2c1Cc1c(OCCCN3CCOCC3)cccc1-2 [Compound 415, (2,6-Dichloro-benzyl)-[5-(3-morpholin-4-yl-propoxy)-2,4-dihydro-indeno[1,2-c]pyrazol-3-yl]-amine] | 98 | 0.0258 | 219 | 
5 | CCC1c2cc(OC)c(OC)cc2-c2n[nH]c(Nc3cccc(Cl)c3)c21 (stereo not drawn) [Compound 419, (3-Chloro-phenyl)-(4-ethyl-6,7-dimethoxy-2,4-dihydro-indeno[1,2-c]pyrazol-3-yl)-amine] | 100 | 0.0621 | 292 | 
6 | CCC1c2cc(OC)c(OC)cc2-c2n[nH]c(Nc3cccc(Br)c3)c21 (stereo not drawn) [Compound 420, (3-Bromo-phenyl)-(4-ethyl-6,7-dimethoxy-2,4-dihydro-indeno[1,2-c]pyrazol-3-yl)-amine] | 100 | 0.0524 | 335 | IC50 (A375 (melanoma)): 214 nM; IC50 (AsPC1 (pancreas)): 4300 nM; IC50 (PC3 (prostate)): 276 nM; IC50 (LoVo (colon)): 3800 nM; IC50 (H460 (lung)): 4100 nM; IC50 (T47D (breast)): 822 nM
7 | COc1cccc2c1Cc1c-2n[nH]c1Nc1cccc(F)c1 [Compound 422, (3-Fluoro-phenyl)-(5-methoxy-2,4-dihydro-indeno[1,2-c]pyrazol-3-yl)-amine] | 83 | 0.0297 | 3080 | 
8 | COc1cc2c(cc1OC)-c1c(c(Nc3cccc(F)c3)nn1C(=O)Oc1ccccc1)C2 [Compound 433, 3-(3-Fluoro-phenylamino)-6,7-dimethoxy-4H-indeno[1,2-c]pyrazole-1-carboxylic acid phenyl ester] | 71 | 0.585 |  | concentration at 0.5 h [2]: 0.06 µM
9 | COc1cc2c(cc1OCCCO)Cc1c-2n[nH]c1NCc1c(Cl)cccc1Cl [Compound 448, 3-[3-(2,6-Dichloro-benzylamino)-7-methoxy-2,4-dihydro-indeno[1,2-c]pyrazol-6-yloxy]-propan-1-ol] | 100 | 0.00177 | 3 | 
10 | COc1cc2c(cc1OCCCO)Cc1c-2n[nH]c1NCc1c(F)cccc1F [Compound 449, 3-[3-(2,6-Difluoro-benzylamino)-7-methoxy-2,4-dihydro-indeno[1,2-c]pyrazol-6-yloxy]-propan-1-ol] | 98.5 | 0.0041 | 23 | 
11 | COc1cc2c(cc1OCC(O)CO)Cc1c-2n[nH]c1NCc1c(F)cccc1F (stereo not drawn) [Compound 457, 3-[3-(2,6-Difluoro-benzylamino)-7-methoxy-2,4-dihydro-indeno[1,2-c]pyrazol-6-yloxy]-propane-1,2-diol] | 100 | 0.00341 | 4 | 
12 | CCOC(=O)CC(=O)n1nc(Nc2cccc(F)c2)c2c1-c1cc(OC)c(OC)cc1C2 [Compound 459, 3-[3-(3-Fluoro-phenylamino)-6,7-dimethoxy-4H-indeno[1,2-c]pyrazol-1-yl]-3-oxo-propionic acid ethyl ester] | 100 | 0.0365 | 70 | 
13 | CCOc1cc2c(cc1OCC(O)CN1CCCC1)-c1n[nH]c(Nc3cccc(F)c3)c1C2 (stereo not drawn) [Compound 460, 1-[6-Ethoxy-3-(3-fluoro-phenylamino)-2,4-dihydro-indeno[1,2-c]pyrazol-7-yloxy]-3-pyrrolidin-1-yl-propan-2-ol] | 97.5 | 0.00427 | 4 | 
14 | CCOc1cc2c(cc1OCC(O)CN1CCCC1)-c1n[nH]c(Nc3cccnc3)c1C2 (stereo not drawn) [Compound 461, 1-[6-Ethoxy-3-(pyridin-3-ylamino)-2,4-dihydro-indeno[1,2-c]pyrazol-7-yloxy]-3-pyrrolidin-1-yl-propan-2-ol] | 97.5 | 0.00755 | 337 | 
15 | CCOc1cccc(Nc2[nH]nc3c2Cc2cc(OCC)c(OCC(O)CN4CCCC4)cc2-3)c1 (stereo not drawn) [Compound 463, 1-[6-Ethoxy-3-(3-ethoxy-phenylamino)-2,4-dihydro-indeno[1,2-c]pyrazol-7-yloxy]-3-pyrrolidin-1-yl-propan-2-ol] | 98.5 | 0.011 | 8 | 
16 | COc1cc2c(cc1OC)-c1c(c(Nc3cccc(F)c3)nn1C(=O)CCC(=O)O)C2 [Compound 466, 4-[3-(3-Fluoro-phenylamino)-6,7-dimethoxy-4H-indeno[1,2-c]pyrazol-1-yl]-4-oxo-butyric acid] | 96 | 0.0311 | 191 | 
17 | COc1cc2c(cc1OC)-c1c(c(Nc3cccc(F)c3)nn1C(=O)COC(C)=O)C2 [Compound 467, Acetic acid 2-[3-(3-fluoro-phenylamino)-6,7-dimethoxy-4H-indeno[1,2-c]pyrazol-1-yl]-2-oxo-ethyl ester] | 96.5 | 0.0176 | 244 | 
18 | OCC(O)COc1cccc2c1Cc1c-2n[nH]c1Nc1cccc(Br)c1 (stereo not drawn) [Compound 468, 3-[3-(3-Bromo-phenylamino)-2,4-dihydro-indeno[1,2-c]pyrazol-5-yloxy]-propane-1,2-diol] | 95.5 | 0.0478 | 603 | 
19 | OCC(O)COc1cccc2c1Cc1c-2n[nH]c1Nc1cccc(F)c1 (stereo not drawn) [Compound 469, 3-[3-(3-Fluoro-phenylamino)-2,4-dihydro-indeno[1,2-c]pyrazol-5-yloxy]-propane-1,2-diol] | 96 | 0.16 | 27 | 
20 | COc1cc2c(cc1OC)-c1c(c(Nc3cccc(F)c3)nn1C(=O)OCCOCCOCCO)C2 [Compound 471, 3-(3-Fluoro-phenyl-amino)-6,7-dimethoxy-4H-indeno[1,2-c]pyrazole-1-carboxylic acid 2-[2-(2-hydroxy-ethoxy)-ethoxy]-ethyl ester] | 90.5 | 0.135 |  | concentration at 0.5 h [2]: 0 µM
21 | CCCC(=O)OCn1nc(Nc2cccc(F)c2)c2c1-c1cc(OC)c(OC)cc1C2 [Compound 490, Butyric acid 3-(3-fluoro-phenylamino)-6,7-dimethoxy-4H-indeno[1,2-c]pyrazol-1-ylmethyl ester] | 96 | 0.0285 | 38 | 
22 | CNC(=O)n1nc(Nc2cccc(F)c2)c2c1-c1cc(OC)c(OC)cc1C2 [Compound 578, 3-(3-Fluoro-phenylamino)-6,7-dimethoxy-4H-indeno[1,2-c]pyrazole-1-carboxylic acid methylamide] | 80 |  |  | IC50 ([1]; read-out: IC50 (μM) on PDGF-R kinase activity): 4.02 µM; concentration at 0.5 h [2]: 7.8 µM
